# Reference: patent US20070179060A1, “6-(Poly-substituted aryl)-4-aminopicolinates and their use as herbicides” (priority 2006, published 2007)
# How the values were obtained:
# Assay in all cases: Postemergence herbicidal safening in cereal crops
# Assay type in all cases: in vivo
# Settings in all cases: Table 5, applied alone, after 3 weeks
# [1] = tested on: Hordeum vulgare (winter barley)
# Description: (§1) Seeds of the desired test plant species were planted in Sun Gro MetroMix® 306 planting mixture, which typically has a pH of 6.0 to 6.8 and an organic matter content of about 30 percent, in plastic pots with a surface area of 103.2 square centimeters. When required to ensure good germination and healthy plants, a fungicide treatment and/or other chemical or physical treatment was applied. The plants were grown for 7-36 days in a greenhouse with an approximate 14 hour photoperiod which was maintained at about 18° C. during the day and 17° C. during the night. Nutrients and water were added on a regular basis and supplemental lighting was provided with overhead metal halide 1000-Watt lamps as necessary. The plants were employed for testing when they reached the second or third true leaf stage. Treatments consisted of compound 42 and cloquintocet-mexyl alone and in combination. Weighed amounts were placed in 25 mL glass vials and dissolved in a volume of 97:3 v/v acetone/DMSO to obtain 9 mg ai/mL stock solutions. […] A dilution solution was prepared by mixing 1 volume of 97:3 v/v acetone/DMSO and 2 volumes of an aqueous mixture containing acetone, water, isopropyl alcohol, DMSO, Agri-dex crop oil concentrate, and Triton® X-77 surfactant in a 64.7:26.0:6.7:2.0:0.7:0.01 v/v ratio. Compound requirements are based upon a 12 mL application volume at a rate of 187 L/ha. […] Formulated compounds were applied to the plant material with an overhead Mandel track sprayer equipped with a […] nozzles calibrated to deliver 187 L/ha over an application area of 0.503 square meters at a spray height of 18 inches (43 cm) above average plant canopy height. Control plants were sprayed in the same manner with the solvent blank. The treated plants and control plants were placed in a greenhouse as described above and watered by sub-irrigation to prevent wash-off of the test compounds. After 3 weeks the condition of the test plants as compared with that of the untreated plants was determined visually and scored on a scale of 0 to 100 percent where 0 corresponds to no injury and 100 corresponds to complete kill. Colby's equation was used to determine the herbicidal effects expected from the mixtures (Colby, S. R. 1967. Calculation of the synergistic and antagonistic response of herbicide combinations. Weeds 15:20-22.). The following equation was used to calculate the expected activity of mixtures containing two active ingredients, A and B: Expected=A+B-(A×B/100) • A=observed efficacy of active ingredient A at the same concentration as used in the mixture. • B=observed efficacy of active ingredient B at the same concentration as used in the mixture.
# [2] = tested on: Papaver rhoeas
# Description: as §1
# [3] = tested on: Triticum aestivum (spring wheat)
# Description: as §1
# [4] = tested on: Galium aparine
# Description: as §1
smiles,measurement,setting,value
"COC(=O)c1nc(-c2ccc(Cl)c(OC)c2F)cc(N)c1Cl [Compound 42, 4-Amino-3-chloro-6-(4-chloro-2-fluoro-3-methoxyphenyl)pyridine-2-carboxylic acid methyl ester]",% Control HORVW Ob,[1]; 35 g ai/ha,0%
same,% Control HORVW Ob,[1]; 70 g ai/ha,15%
same,% Control PAPRH Ob,[2]; 35 g ai/ha,100%
same,% Control PAPRH Ob,[2]; 70 g ai/ha,100%
same,% Control TRZAS Ob,[3]; 35 g ai/ha,35%
same,% Control TRZAS Ob,[3]; 70 g ai/ha,40%
same,% Control GALAP Ob,[4]; 35 g ai/ha,99%
same,% Control GALAP Ob,[4]; 70 g ai/ha,100%
